Test results published in patent publication US4368198A, “Cephalosporins” (Sumitomo Chemical Company Limited, priority 1976, dated 1983).
Converted amounts (≈) assume the structure as drawn. Like-named read-outs stand apart in the source and are kept apart here.

How the values were obtained:
Assay type in all cases: cell-based
[1] = tested on: Staphylococcus aureus FS 289; test: antimicrobial activities in in vitro testing (MIC), Staphylococcus aureus FS 289; settings: FS289, read-out: Minimum Inhibitory Concentration
From the text: (§1) The results of the antimicrobial activities of these compounds in in vitro testing in accordance with the recognized method are set forth in the Table below.

Proteus vulgaris HX 19 = test: antimicrobial activities in in vitro testing (MIC), Proteus vulgaris HX 19; settings: HX19, read-out: Minimum Inhibitory Concentration
From the text: as §1

Escherichia coli NIHJ = test: antimicrobial activities in in vitro testing (MIC), Escherichia coli NIHJ
[2] = tested on: Klebsiella pneumoniae 602; test: antimicrobial activities in in vitro testing (MIC), Klebsiella pneumoniae 602
[3] = tested on: Pseudomonas aeruginosa 104; test: antimicrobial activities in in vitro testing (MIC), Pseudomonas aeruginosa 104
From the text: as §1

[4] = tested on: Staphylococcus aureus 209P; test: antimicrobial activities in in vitro testing (MIC), Staphylococcus aureus 209P
From the text: as §1

[5] = in vitro, read-out: Minimum Inhibitory Concentration
[6] = Staphylococcus aureus 209P, in vitro, read-out: Minimum Inhibitory Concentration
[7] = read-out: antimicrobial activities
[8] = Staphylococcus aureus 209 P, read-out: antimicrobial activities

SMILES	MIC [1] [µg/mL]	MIC (Proteus vulgaris HX 19) [µg/mL]	MIC (Escherichia coli NIHJ; [5]) [µg/mL]	MIC [2, 5] [µg/mL]	MIC [3, 5] [µg/mL]	MIC [4, 6] [µg/mL]	MIC (Escherichia coli NIHJ; [7]) [µg/mL]	MIC [2, 7] [µg/mL]	MIC [3, 7] [µg/mL]	MIC [4, 8] [µg/mL]
NC(=O)OCC1=C(C(=O)O)N2C(=O)C(NC(=O)[C@H](NC(=O)c3cnc4cccnc4c3O)c3ccc(O)cc3)[C@H]2SC1 (stereo partly drawn) [Example 7, 7-[D-α-(4-Hydroxy-1,5-naphthyridine-3-carboxamido)-α-(p-hydroxyphenyl)acetamido]-3-carbamoyloxymethyl-3-cephem-4-carboxylic acid]	6.25 (≈ 10.5 µM)	0.78 (≈ 1.31 µM)	3.13 (≈ 5.26 µM)	1.56 (≈ 2.62 µM)	6.25 (≈ 10.5 µM)	0.78 (≈ 1.31 µM)	–	–	–	–
NC(=O)OCC1=C(C(=O)O)N2C(=O)C(NC(=O)[C@H](NC(=O)c3cnccc3O)c3ccc(O)cc3)[C@H]2SC1 (stereo partly drawn) [Example 4, 7-[D-α-(4-Hydroxypyridine-3-carboxamido)-α-p-hydroxyphenylacetamido]-3-carbamoyloxymethyl-3-cephem-4-carboxylic Acid]	3.13 (≈ 5.76 µM)	0.2 (≈ 0.368 µM)	12.5 (≈ 23 µM)	12.5 (≈ 23 µM)	6.25 (≈ 11.5 µM)	0.39 (≈ 0.718 µM)	–	–	–	–
NC(=O)OCC1=C(C(=O)O)N2C(=O)C(NC(=O)[C@H](NC(=O)c3cnccc3O)c3cccc(N)c3)[C@H]2SC1 (stereo partly drawn) [Example 5, 7-[D-α-(4-Hydroxypyridine-3-carboxamido)-α-(m-aminophenyl)acetamido]-3-carbamoyloxymethyl-3-cephem-4-carboxylic acid]	3.13 (≈ 5.77 µM)	0.2 (≈ 0.369 µM)	6.25 (≈ 11.5 µM)	12.5 (≈ 23 µM)	6.25 (≈ 11.5 µM)	0.39 (≈ 0.719 µM)	–	–	–	–
NC(=O)OCC1=C(C(=O)O)N2C(=O)C(NC(=O)[C@H](NC(=O)c3cnc4cccnc4c3O)c3ccccc3)[C@H]2SC1 (stereo partly drawn) [Example 8, 7-[D-α-(4-Hydroxy-1,5-naphthyridine-3-carboxamido)-α-phenylacetamido]-3-carbamoyloxymethyl-3-cephem-4-carboxylic acid]	6.25 (≈ 10.8 µM)	0.78 (≈ 1.35 µM)	3.13 (≈ 5.41 µM)	1.56 (≈ 2.7 µM)	6.25 (≈ 10.8 µM)	0.78 (≈ 1.35 µM)	–	–	–	–
NC(=O)OCC1=C(C(=O)O)N2C(=O)C(NC(=O)[C@H](NC(=O)c3cnc4cccnc4c3O)c3cccc(N)c3)C2SC1 (some centres unmarked) [Example 9]	3.13 (≈ 5.27 µM)	0.78 (≈ 1.31 µM)	1.56 (≈ 2.63 µM)	1.56 (≈ 2.63 µM)	6.25 (≈ 10.5 µM)	0.78 (≈ 1.31 µM)	–	–	–	–
NC(=O)OCC1=C(C(=O)O)N2C(=O)C(NC(=O)[C@H](NC(=O)c3cnc4cccnc4c3O)c3ccc(O)c(Cl)c3)C2SC1 (some centres unmarked) [Example 12]	6.25 (≈ 9.94 µM)	0.78 (≈ 1.24 µM)	3.13 (≈ 4.98 µM)	1.56 (≈ 2.48 µM)	6.25 (≈ 9.94 µM)	1.56 (≈ 2.48 µM)	–	–	–	–

Results, then the molecule that gave them:

MIC [1] [µg/mL]	MIC (Proteus vulgaris HX 19) [µg/mL]	MIC (Escherichia coli NIHJ; [5]) [µg/mL]	MIC [2, 5] [µg/mL]	MIC [3, 5] [µg/mL]	MIC [4, 6] [µg/mL]	MIC (Escherichia coli NIHJ; [7]) [µg/mL]	MIC [2, 7] [µg/mL]	MIC [3, 7] [µg/mL]	MIC [4, 8] [µg/mL]	SMILES
–	–	–	–	–	–	1.56 (≈ 2.2 µM)	1.56 (≈ 2.2 µM)	3.13 (≈ 4.41 µM)	0.78 (≈ 1.1 µM)	O=C(O)Cc1nnc(SCC2=C(C(=O)O)N3C(=O)C(NC(=O)[C@H](NC(=O)c4cnc5cccnc5c4O)c4ccc(O)cc4)[C@H]3SC2)s1 (stereo partly drawn) [Example 13, 7-[D-α-(4-Hydroxy-1,5-naphthyridine-3-carboxamido)-α-p-hydroxyphenylacetamido]-3-(5-carboxymethyl-1,3,4-thiadiazol-2-ylthiomethyl)-3-cephem-4-carboxylic Acid]
6.25 (≈ 10.5 µM)	1.56 (≈ 2.62 µM)	6.25 (≈ 10.5 µM)	6.25 (≈ 10.5 µM)	12.5 (≈ 21 µM)	1.56 (≈ 2.62 µM)	–	–	–	–	NC(=O)OCC1=C(C(=O)O)N2C(=O)C(NC(=O)[C@H](NC(=O)c3cnc4cncnc4c3O)c3ccc(O)cc3)C2SC1 (stereo partly drawn) [Example 11, 7-[D-α-(5,8-Dihydro-5H-8-oxopyrido[3,2-d]pyrimidine-7-carboxamido)-α-(p-hydroxyphenyl)acetamido]-3-carbamoyloxymethyl-3-cephem-4-carboxylic acid]
3.13 (≈ 5.93 µM)	0.2 (≈ 0.379 µM)	12.5 (≈ 23.7 µM)	12.5 (≈ 23.7 µM)	12.5 (≈ 23.7 µM)	0.39 (≈ 0.739 µM)	–	–	–	–	NC(=O)OCC1=C(C(=O)O)N2C(=O)C(NC(=O)[C@H](NC(=O)c3cnccc3O)c3ccccc3)[C@H]2SC1 (stereo partly drawn) [Example 6, 7-[D-α-(4-Hydroxypyridine-3-carboxamido)-α-phenylacetamido]-3-carbamoyloxymethyl-3-cephem-4-carboxylic acid]
3.13 (≈ 4.88 µM)	1.56 (≈ 2.43 µM)	6.25 (≈ 9.74 µM)	6.25 (≈ 9.74 µM)	6.25 (≈ 9.74 µM)	0.78 (≈ 1.22 µM)	–	–	–	–	CSc1ncc2c(O)c(C(=O)N[C@@H](C(=O)NC3C(=O)N4C(C(=O)O)=C(COC(N)=O)CS[C@H]34)c3ccc(O)cc3)cnc2n1 (stereo partly drawn) [Example 10, 7-[D-α-(2-Methylthio-5,8-dihydro-5-oxopyrido[2,3-d]-pyrimidine-6-carboxamido)-α-(p-hydroxyphenyl)acetamido]-3-carbamoyloxymethyl-3-cephem-4-carboxylic acid]
–	–	–	–	–	–	1.56 (≈ 2.25 µM)	1.56 (≈ 2.25 µM)	3.13 (≈ 4.51 µM)	0.78 (≈ 1.12 µM)	O=C(O)Cn1nnnc1SCC1=C(C(=O)O)N2C(=O)C(NC(=O)[C@H](NC(=O)c3cnc4cccnc4c3O)c3ccc(O)cc3)[C@H]2SC1 (stereo partly drawn) [Example 14, 7-[D-α-(4-Hydroxy-1,5-naphthyridine-3-carboxamido)-α-p-hydroxyphenylacetamido]-3-(1-carboxymethyl-1,2,3,4-tetrazol-5-ylthiomethyl)-3-cephem-4-carboxylic Acid]
